Experimental findings from ChEMBL document CHEMBL1201862, “PubChem BioAssay data set” (2004) are described below.

The structures appear in SMILES notation.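 Cultured in 96-well plates, cells were exposed to test compound for 48 hours across five concentrations. GI50 is the concentration that inhibits growth by half.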 Active and inactive are the calls of the source. No stated cut-off is given here; in the data, active = GI50 up to about 1.1 µM and inactive = higher. Where only a bound is given, the exact number is not on record here.

Test in all cases: DTP human tumour cell line panel, 48 h
Experiment [1] relates to KM-20L2.
The test system of experiment [2] is UACC-62.
For experiment [3], the system named is HCT-15.
Experiment [4] deals with SF-539.
The subject of experiment [5] is U-251.
For experiment [6], the system named is K562.
In experiment [7] the test system is RPMI-8226.
The test system of experiment [8] is SF-268.
In experiment [9] the test system is LOX IMVI.
Experiment [10] deals with CAKI-1.
The test system of experiment [11] is A549.
Experiment [12] deals with M14.
Experiment [13] concerns CCRF-CEM.
The test system of experiment [14] is HOP-62.
Experiment [15] has as its system NCI-H460.
Experiment [16] has as its system OVCAR-5.
Experiment [17] concerns MDA-MB-435.
The test system of experiment [18] is MCF7.
Experiment [19] has as its system DU-145.
The subject of experiment [20] is RXF 393.

In the case of `COc1ccc(/C(C#N)=C2/O/C(=N/N)C(c3ccc(OC)c(OC)c3)C2=O)cc1OC` (stereo unspecified), the GI50 (usually the concentration giving 50% growth inhibition) was > 100 µM (inactive) in [1]; > 100 µM (inactive) in experiment [2]; > 100 µM in [3]; > 100 µM (inactive) in [4]; > 100 µM (inactive) in experiment [5]; > 100 µM (inactive) in [6]. In addition, the GI50 in experiment [7], in experiment [8], in experiment [9], in [10], in [11] and in [12] was > 100 µM (inactive) in each case. The GI50 in experiment [13] was > 100 µM (inactive).

As to `Cc1c(C(=O)/C=C/c2ccccc2[N+](=O)[O-])[n+]([O-])c2ccccc2[n+]1[O-]`, the GI50 in [1] was 5.61 µM (inactive); in experiment [3], 3.3 µM; in [4], 3.78 µM (inactive); in [5], 15.2 µM (inactive); in experiment [14], 18.2 µM (inactive); in [6] it was 3.39 µM (inactive). Further, the GI50 is 2.96 µM (inactive) in experiment [7]; 3.61 µM (inactive) in experiment [10]; 4.32 µM (inactive) in experiment [15]; 12.5 µM (inactive) in [11]; 11 µM (inactive) in experiment [12]; 13.7 µM (inactive) in experiment [16].

Regarding `CC1Cc2c(cc(N)nc2Br)NC1=O` (stereo unspecified), the GI50 in experiment [2] is > 100 µM (inactive); in experiment [3], > 100 µM; in experiment [4] it was > 100 µM (inactive); in experiment [5], > 100 µM (inactive); in experiment [14] it was > 100 µM (inactive); in experiment [6] it was 63.4 µM (inactive). For the same compound, the GI50 in experiment [17] was 62.4 µM (inactive); in experiment [7] it was > 100 µM (inactive); in [8], > 100 µM (inactive); in experiment [18], > 100 µM (inactive); in experiment [9], > 100 µM (inactive); in experiment [10], > 100 µM (inactive). Further, the GI50 is > 100 µM (inactive) in experiment [15]; 63.7 µM (inactive) in [11]; > 100 µM (inactive) in experiment [19]; > 100 µM (inactive) in [12]; > 100 µM (inactive) in [13]; 81.8 µM (inactive) in experiment [20]. Also, in [16], the GI50 was > 100 µM (inactive).

Regarding `Cn1c(=O)cc(/N=N\c2ccc(Cl)c(Cl)c2)[nH]c1=O`, the GI50 is 62.2 µM (inactive) in experiment [2]; 19.6 µM in experiment [3]; > 100 µM (inactive) in [4]; 23.3 µM (inactive) in experiment [5]; > 100 µM (inactive) in experiment [14]; 28.1 µM (inactive) in [6]. Further, the GI50 in experiment [17] is 21.1 µM (inactive); in experiment [7], 28.3 µM (inactive); in experiment [8], 20.1 µM (inactive); in [18] it was 26.7 µM (inactive); in experiment [9], 19.2 µM (inactive); in experiment [10], 13.4 µM (inactive). In addition, the GI50 in [15] was 29.9 µM (inactive); in [11], > 100 µM (inactive); in [19], 85.5 µM (inactive); in experiment [12] it was 20.3 µM (inactive); in [13], 24.2 µM (inactive); in experiment [20] it was 23.3 µM (inactive). Besides, the GI50 in experiment [16] was 24.8 µM (inactive).

On to `COC(=O)/C=C/C(=O)Nc1cc(Cl)c(Cl)cc1CC(=O)N(C)[C@H]1CCCC[C@@H]1N1CCCC1`, for which the GI50 in experiment [2] was 13.9 µM (inactive); in experiment [3], 11.4 µM; in experiment [4], 5.04 µM (inactive); in [5] it was 14.8 µM (inactive); in experiment [14], 16.9 µM (inactive); in experiment [6], 3.72 µM (inactive). The GI50 in experiment [17] was 5.61 µM (inactive); in experiment [7] it was 2.63 µM (inactive); in [8] it was 18.7 µM (inactive); in experiment [18] it was 3.49 µM (inactive); in [9] it was 5.3 µM (inactive); in [10], 5.37 µM (inactive). The GI50 in [15] is 17.3 µM (inactive); in experiment [11], 21.5 µM (inactive); in experiment [19], 5.02 µM (inactive); in [12], 7.41 µM (inactive); in experiment [13] it was 2.79 µM (inactive); in [20] it was 4.01 µM (inactive). The GI50 in experiment [16] was 15.8 µM (inactive).

As for `COC(=O)/C=C/COCC1C2CCC(=O)C21` (stereo unspecified), the GI50 in [2] was > 100 µM (inactive); in [3], > 100 µM; in experiment [4] it was > 100 µM (inactive); in experiment [5], > 100 µM (inactive); in experiment [14], > 100 µM (inactive); in [6] it was > 100 µM (inactive). The GI50 was > 100 µM (inactive) in experiment [17]; > 100 µM (inactive) in [7]; > 100 µM (inactive) in experiment [8]; > 100 µM (inactive) in [18]; > 100 µM (inactive) in experiment [9]; 27.4 µM (inactive) in experiment [10]. For the same compound, the GI50 in [15], in experiment [11], in [19], in experiment [12], in experiment [13] and in experiment [20] was > 100 µM (inactive) throughout. Moreover, the GI50 in experiment [16] is > 100 µM (inactive).

`CC12c3c4cccc3Oc3cc(N)cc(c31)Oc1cc(N)cc(c12)O4`: the GI50 is 4.59 µM (inactive) in experiment [2]; 4.14 µM in experiment [3]; 2.96 µM (inactive) in experiment [4]; 6.93 µM (inactive) in experiment [5]; 5.75 µM (inactive) in [14]; 4.18 µM (inactive) in experiment [6]. Moreover, the GI50 was 1.24 µM (inactive) in [17]; 5.93 µM (inactive) in experiment [7]; 4.31 µM (inactive) in experiment [8]; 4.37 µM (inactive) in experiment [18]; 6 µM (inactive) in experiment [9]; 9.86 µM (inactive) in experiment [10]. Also, the GI50 is 3.48 µM (inactive) in experiment [15]; 3.77 µM (inactive) in experiment [11]; 5.52 µM (inactive) in experiment [19]; 4.55 µM (inactive) in [12]; 0.736 µM (active) in [13]; 0.408 µM (active) in experiment [20]. Moreover, the GI50 in [16] was 4.31 µM (inactive).

In the case of `CCOC(=O)C(C(=O)OCC)=C1NC2(c3ccccc3Nc3ccc(C)cc32)C(C(=O)OC)S1` (stereo unspecified), the GI50 is 20.8 µM (inactive) in experiment [2]; 18.7 µM in experiment [3]; 42.2 µM (inactive) in [4]; 23.7 µM (inactive) in experiment [5]; 80 µM (inactive) in experiment [14]; 18.4 µM (inactive) in [6]. The GI50 in experiment [17] was 30.5 µM (inactive); in experiment [7], 8.93 µM (inactive); in [8] it was 12.3 µM (inactive); in experiment [18], 14.8 µM (inactive); in [9] it was 33.5 µM (inactive); in [10], 8.69 µM (inactive). Besides, the GI50 in experiment [15] is 12.1 µM (inactive); in experiment [11] it was 13.7 µM (inactive); in experiment [19], 50.6 µM (inactive); in experiment [12], 27.6 µM (inactive); in experiment [13], 15.1 µM (inactive); in experiment [20], 7.18 µM (inactive). Besides, in experiment [16], the GI50 was 20.9 µM (inactive).

For `COc1cccc(/C=C2\SC(=S)N(/C=C3\C(=O)Oc4ccccc4C3=O)C2=O)c1O`, the GI50 in [2] was 53 µM (inactive); in experiment [3], 43.2 µM; in experiment [4], 24.9 µM (inactive); in experiment [5] it was 31.5 µM (inactive); in experiment [14], 50.7 µM (inactive); in experiment [6], 34.4 µM (inactive). In addition, the GI50 in experiment [17] was 24.7 µM (inactive); in experiment [7] it was 18.8 µM (inactive); in experiment [8], 46.7 µM (inactive); in [18], 39.4 µM (inactive); in experiment [9], 63.2 µM (inactive); in experiment [10] it was 81.1 µM (inactive). Besides, the GI50 was 48.1 µM (inactive) in [15]; 59.7 µM (inactive) in experiment [11]; 74.5 µM (inactive) in [19]; 39.4 µM (inactive) in [12]; 38.7 µM (inactive) in experiment [13]; 59.4 µM (inactive) in experiment [20]. For the same compound, the GI50 in experiment [16] was > 100 µM (inactive).

With `O=C1N[C@H]2C(=O)c3c(Br)sc(Br)c3[C@H]2O1`, the GI50 was 13.6 µM (inactive) in [2]; 1.95 µM in experiment [3]; 17.4 µM (inactive) in experiment [4]; 3.48 µM (inactive) in experiment [5]; 16.2 µM (inactive) in [14]; 2.66 µM (inactive) in [6]. In addition, the GI50 in experiment [17] was 3.89 µM (inactive); in experiment [7] it was 4.44 µM (inactive); in [8], 4.1 µM (inactive); in experiment [18], 10.7 µM (inactive); in [9] it was 3.08 µM (inactive); in experiment [10] it was 4.53 µM (inactive). In addition, the GI50 in experiment [15] is 16.8 µM (inactive); in [11] it was 19.4 µM (inactive); in experiment [19], 13.2 µM (inactive); in experiment [12], 3.08 µM (inactive); in [13], 1.31 µM (inactive); in [20], 3.18 µM (inactive). Also, the GI50 in experiment [16] was 17.7 µM (inactive).

With `CC1=CC(=O)[C@@H](O)[C@]2(C)[C@H]3[C@@]4(O)OC[C@]35[C@H]([C@@H](C)[C@H]4O)[C@@H](O)C(=O)O[C@@H]5C[C@@H]12`, the GI50 was 0.312 µM (active) in experiment [2]; 0.175 µM in [3]; 0.0743 µM (active) in experiment [4]; 0.0509 µM (active) in experiment [5]; 0.21 µM (active) in [14]; 0.475 µM (active) in [6]. For the same compound, the GI50 in [17] was 0.232 µM (active); in experiment [7], 0.445 µM (active); in experiment [8], 0.231 µM (active); in experiment [18] it was 0.0382 µM (active); in experiment [9], 0.0895 µM (active); in experiment [10] it was 0.811 µM (active). For the same compound, the concentration for 50% growth inhibition (GI50) in experiment [15] is 0.214 µM (active); in [11] it was 0.789 µM (active); in experiment [19] it was 0.33 µM (active); in experiment [12], 0.25 µM (active); in experiment [13], 0.261 µM (active); in [20], 0.391 µM (active). Besides, the GI50 in experiment [16] is 0.706 µM (active).
